Converted amounts (≈) assume the structure as drawn.
Columns and labels:
[1] = cited from earlier work; for aqueous solubility in water: Source: Drugbank
[2] = cited from earlier work; for pKa: Source: Drugbank or FDA
[3] = physchem

O=C(O)Cc1ccccc1Nc1c(Cl)cccc1Cl [Diclofenac, diclofenac]
solubility in intestinal fluid of neutral pH ([1]; as sodium salt, intestinal fluid of neutral pH): 1113 μg/mL

CCC(C)n1ncn(-c2ccc(N3CCN(c4ccc(OCC5COC(Cn6cncn6)(c6ccc(Cl)cc6Cl)O5)cc4)CC3)cc2)c1=O (centres unmarked) [itraconazole]
solubility in gastric fluid ([1]; gastric fluid): 3500 µg/mL (≈ 4960 µM) | solubility in intestinal fluid ([1]; intestinal fluid): 0.2 µg/mL (≈ 0.283 µM)

COC(=O)[C@H](c1ccccc1Cl)N1CCc2sccc2C1 [Clopidogrel, clopidogrel]
pKa [2]: 4.5 | solubility ([3]; aqueous solution at pH 1.2, pH 1.2, simulated gastric fluid): 5200 µg/mL (≈ 16200 µM) | solubility ([3]; aqueous solution at pH 6.8, pH 6.8, aqueous buffer): 14 µg/mL (≈ 43.5 µM)

COc1ccc(-n2nc(C(N)=O)c3c2C(=O)N(c2ccc(N4CCCCC4=O)cc2)CC3)cc1 [Apixaban, apixaban]
detectable pKa ([2]; within pH range of 0.0-10.0, Source: Drugbank): no detectable pKa | aqueous solubility in water [1]: 40 to 50 µg/mL

CC(C)Cc1ccc(C(C)C(=O)O)cc1 (centres unmarked) [Ibuprofen, ibuprofen]
solubility of ibuprofen alone at pH 1.2 ([1]; pH 1.2, drug alone, same figure as Drugbank water solubility): 0.021 mg/mL

CC(=O)Oc1cc2c(s1)CCN(C(C(=O)C1CC1)c1ccccc1F)C2 (centres unmarked) [Prasugrel, prasugrel]
pKa [2]: 5.48 | aqueous solubility in water [1]: 2.37 µg/mL (≈ 6.35 µM)

Reference: US20200009125A1, “Pharmaceutical Compositions For Poorly Water-Soluble Compounds” (ASCENDIA PHARMACEUTICALS, LLC, priority 2013, published 2020)
